Measurements as given in article PMC8911826, “Design of Oligourea-Based Foldamers with Antibacterial and Antifungal Activities” (Molecules, 2022).
In brackets after ≈: the same amount, converted by molar mass. Read-outs that look alike come from different tables or passages of the source. Marks after values point to notes of the source that are not given here.

Columns and labels:
[1] = tested on: Aspergillus fumigatus 098; experiment: Antifungal assay on spores, growth evaluated by microscopy; format: cell-based; conditions: 30 °C, 24 h without agitation, n = 3
Description: Aspergillus fumigatus strain (A. fumigatus, ASPFU098 from Dynamique des interactions hôte pathogène (DIHP) laboratory—EA 7292, Strasbourg) were tested to evaluate the antifungal properties of foldamers. Spores were resuspended at a concentration of 10^3 spores/mL in Sabouraud dextrose broth medium. Test samples were incubated with 90 μL of fungal spores. The suspension was incubated at 30 °C for 24 h without agitation. Fungal growth was monitored microscopically after 24 h. Media alone was used as negative control and corresponds to 100% fungal growth; voriconazole (50 μg/mL) was used as a positive control and corresponds to 100% growth inhibition.

[2] = tested on: S. aureus ATCC 25923; format: cell-based, Staphylococcus aureus
Description: (§1) Staphylococcus aureus (S. aureus, ATCC 25923), Staphylococcus aureus S1 Methicillin Resistant (MRSA; this strain was kindly provided by Dr Gilles Prévost, University of Strasbourg), Escherichia coli (E. coli, ATCC 25922), and Pseudomonas aeruginosa (P. aeruginosa, ATCC 27853) strains were used to assess the antibacterial properties of the samples. Bacterial strain was cultured aerobically at 37 °C in Mueller–Hinton broth (MHB) medium (Merck, Germany), pH 7.4. One colony was transferred to 10 mL of MHB medium and incubated at 37 °C for 20 h. To obtain bacteria in the mid logarithmic phase of growth, the absorbance at 620 nm of overnight culture was adjusted to 0.001, corresponding to a final density of 5 × 10^5 CFU/mL. Ninety percent of this culture was incubated with 10% of the test compound at different concentrations. The positive control was composed of 90% bacterial suspension and 10% a mixture of antibiotics (tetracycline: 10 μg/mL and cefotaxime: 0.1 μg/mL in PBS). The negative control was composed of 90% of the bacterial suspension and 10% of PBS, corresponding to our 100% growth.
(§2) In order to test the influence of serum on the minimal inhibitory concentration (MIC), we added 10% decomplemented fetal bovine serum or 50% nondecomplemented fetal bovine serum in MHB medium. After 24 h of incubation at 37 °C with shaking, the optical density at 620 nm of each well was measured. The smallest concentration for which bacterial growth is 0% corresponds to the MIC of the tested compound.

[3] = tested on: E. coli ATCC 25922; format: cell-based, Escherichia coli
Description: as §1, §2

[4] = tested on: Staphylococcus aureus S1 Methicillin Resistant (MRSA); format: cell-based
Description: as §1, §2

[5] = tested on: P. aeruginosa ATCC 27853; format: cell-based, Pseudomonas aeruginosa; conditions: for MIC, P. aeruginosa ATCC 27853: MHB medium pH 7.4, 24 h, 100 μL, 5 × 10^5 CFU/mL, OD 620 nm, lowest concentration with 0% growth, mean of 3 samples
Description: as §1, §2

[6] = tested on: C. albicans ATCC 18804; experiment: Antifungal MIC assay in SAB, C. albicans; format: cell-based, Candida albicans
Description: The Candida albicans (C. albicans, ATCC 18804) strain was used to assess the antifungal properties of the samples. Briefly, C. albicans was cultured aerobically at 30 °C in Sabouraud dextrose broth (SAB) medium (Becton Dickinson, Voisins le Bretonneux, France). One colony was then transferred to 10 mL of SAB medium and incubated at 30 °C for 20 h. The absorbance at 620 nm of overnight culture was adjusted to 0.001 and the tests were performed under the same conditions as those used for bacteria, with the exception of the temperature (30 °C instead of 37 °C) and the culture medium (SAB instead of MHB).

[7] = tested on: MDA-MB-231 cells; conditions: 24 h
Description: (§3) We used the human breast cancer cell line MDA-MB-231. The cells were cultured using RPMI that was supplemented with 100 units/mL penicillin, 100 µg/mL streptomycin, and 10% of fetal calf serum (FCS from HyClone, Fischer Scientific, Illkirch, France). The MDA-MB-231 cells were plated in 48-well plates one day before the experiments were conducted. The cell confluence was around 60% the day of the assay.
The cell viability was determined on MDA-MB-231 cells by performing the MTS assay (3-(4,5-dimethylthiazol-2-yl)-5-(3-carboxymethoxyphenyl)-2-(4-sulfophenyl)-2H-tetrazolium salt) (CellTiter 96® AQueous One Solution Cell Proliferation Assay from Promega). This assay was performed using biological triplicates (same amount of foldamer were added to 3 different wells). Increasing amounts of foldamer diluted in 250 μL/well of RPMI 10% FCS were added to the cells. After 24 h of incubation, the culture medium was removed and replaced with 300 μL/well of RPMI 10% FCS containing the MTS reagent (50 μL/well). After incubation at 37 °C for 1 h and 10 min, 200 μL of medium were withdrawn and used to measure the absorbance at 490 nm (and 680 nm for background). Untreated cells were used as control (100% of cell viability).

[8] = tested on: MDA-MB-231 cells
Description: as §3
The membrane permeabilization activity was measured as the leakage of lactate dehydrogenase (LDH) from the cells. […] Thereby, foldamers were incubated with MDA-MB-231 cells and after incubation at 37 °C for 1 h and 10 min, an aliquot (50 μL) of the supernatant of each well was used for the measurement of the LDH activity. […] The LDH release was measured using a commercially available kit (CytoTox-ONE membrane integrity assay from Promega). Untreated cells were used as control. The value of 100% LDH release was obtained by using cells treated with a lysis buffer. Absorbance was measured at 490 nm (and at 680 nm for background).

[9] = tested on: S. aureus; conditions: 50% bovine serum; cited from earlier work
[10] = MHB medium pH 7.4, 24 h, 37 °C, 100 μL, 5 × 10^5 CFU/mL, OD 620 nm, lowest concentration with 0% growth, mean of 3 samples
[11] = Table S2, MIC of Table 1 in μM, MHB, 24 h, 37 °C

| Compound | MIC, S. aureus ATCC 25923 [2, 10] | MIC, MRSA [4, 10] | MIC, P. aeruginosa ATCC 27853 ([5]; 37 °C) | MIC, E. coli ATCC 25922 [3, 10] | MIC, S. aureus 25923 ([2]; ATCC 25923, 24 h) | MIC, MRSA ([4]; S1 Methicillin Resistant, 24 h) | MIC, P. aeruginosa 27853 ([5]; ATCC 27853, 24 h) | MIC, E. coli 25922 ([3]; ATCC 25922, 24 h) | MIC, C. albicans 18804 ([6]; ATCC 18804, 24 h) | further results |
| --- | --- | --- | --- | --- | --- | --- | --- | --- | --- | --- |
| C[C@@H](c1ncncc1F)[C@](O)(Cn1cncn1)c1ccc(F)cc1F [Voriconazole, reference compound] | – | – | – | – | – | – | – | – | – | MIC ([1]; Aspergillus fumigatus, 098, spores in Sabouraud dextrose broth): 12.5 µg/mL (≈ 35.8 µM) |
| CC(=O)N[C@@H](CCCNC(=N)N)C(=O)N[C@@H](Cc1c[nH]cn1)C(=O)N[C@@H](CCCNC(=N)N)C(=O)N[C@@H](Cc1c[nH]cn1)C(=O)N[C@@H](CCCNC(=N)N)C(=O)N[C@H](CNC(=O)N[C@H](CNC(=O)N[C@H](CNC(=O)N[C@H](CNC(N)=O)Cc1c[nH]c2ccccc12)C(C)C)Cc1c[nH]c2ccccc12)C(C)C [OL-7] | – | – | – | – | – | – | – | – | – | MIC, S. aureus ATCC 25923 ([2]; ATCC 25923, 24 h, pH 7.4): ≥ 100 µg/mL; MIC, E. coli ATCC 25922 ([3]; ATCC 25922, 24 h, pH 7.4): ≥ 100 µg/mL |
| CC(C)NC(=O)N[C@@H](CCCNC(=N)N)CNC(=O)N[C@H](CNC(=O)N[C@H](CNC(=O)N[C@H](CNC(=O)N[C@H](CNC(=O)N[C@H](CNC(=O)N[C@H](CNC(=O)N[C@@H](CCCNC(=N)N)CNC(=O)N[C@H](CCC(N)=O)C(C)C)Cc1c[nH]c2ccccc12)Cc1c[nH]cn1)C(C)C)Cc1c[nH]c2ccccc12)Cc1c[nH]cn1)C(C)C [OL-4] | 6.25 µg/mL (≈ 3.86 µM) | 6.25 µg/mL (≈ 3.86 µM) | 50 µg/mL (≈ 30.9 µM) | 6.25 µg/mL (≈ 3.86 µM) | – | – | – | – | – | MIC, S. aureus 25923 [2, 11]: 3.86 μΜ; MIC, MRSA [4, 11]: 3.86 μΜ; MIC, P. aeruginosa 27853 [5, 11]: 30.88 μΜ; MIC, E. coli 25922 [3, 11]: 3.86 μΜ; MIC, C. albicans 18804 ([6]; Sabouraud dextrose broth (SAB), 24 h, 30 °C, 100 μL, OD 620 nm, n = 3): 12.5 µg/mL (≈ 7.72 µM) |
| CC(C)NC(=O)N[C@H](CNC(=O)N[C@H](CNC(=O)N[C@H](CNC(=O)N[C@H](CNC(=O)N[C@@H](CCCNC(=N)N)CNC(=O)N[C@H](CNC(=O)N[C@@H](CCCNC(=N)N)CNC(=O)N[C@H](CCC(N)=O)C(C)C)Cc1c[nH]c2ccccc12)C(C)C)Cc1c[nH]c2ccccc12)Cc1c[nH]cn1)C(C)C [OL-2] | 6.25 µg/mL (≈ 4.3 µM) | 12.5 µg/mL (≈ 8.6 µM) | 25 µg/mL (≈ 17.2 µM) | 6.25 µg/mL (≈ 4.3 µM) | 4.3 μΜ | 8.6 μΜ | 17.2 μΜ | 4.3 μΜ | 12.5 µg/mL (≈ 8.6 µM) | – |
| CC(C)NC(=O)N[C@H](CNC(=O)N[C@H](CNC(=O)N[C@H](CNC(=O)N[C@H](CNC(=O)N[C@H](CNC(=O)N[C@H](CNC(=O)N[C@@H](CCCNC(=N)N)CNC(=O)N[C@H](CCC(N)=O)C(C)C)Cc1c[nH]c2ccccc12)Cc1c[nH]cn1)C(C)C)Cc1c[nH]c2ccccc12)Cc1c[nH]cn1)C(C)C [OL-3] | 12.5 µg/mL (≈ 8.72 µM) | 12.5 µg/mL (≈ 8.72 µM) | 50 µg/mL (≈ 34.9 µM) | 12.5 µg/mL (≈ 8.72 µM) | 8.7 μΜ | 8.7 μΜ | 34.8 μΜ | 8.7 μΜ | 12.5 µg/mL (≈ 8.72 µM) | MIC towards MRSA in the presence of 10% serum versus without ([4]; MHB supplemented with 10% decomplemented fetal calf serum, 24 h, 37 °C, mean of three samples): remained unaffected; Change of MIC towards MRSA in the presence of 50% serum ([4]; MHB supplemented with 50% nondecomplemented fetal calf serum, 24 h, 37 °C, mean of three samples): two to four-fold; MIC, Aspergillus fumigatus 098 ([1]; spores in Sabouraud dextrose broth): below 50 μg/mL; IC50, cell viability (MTS) [7]: about 50 μg/mL; LDH leakage / alteration of the membranes [8]: least cytotoxic foldamer towards mammalian cells |
| Pexiganan | – | – | – | – | – | – | – | – | – | Loss of activity in the presence of serum [9]: 32 fold |
| CC(C)NC(=O)N[C@H](CNC(=O)N[C@@H](CCCNC(=N)N)CNC(=O)N[C@H](CNC(=O)N[C@H](CNC(=O)N[C@@H](CCCNC(=N)N)CNC(=O)N[C@H](CNC(=O)N[C@@H](CCCNC(=N)N)CNC(=O)N[C@H](CCC(N)=O)C(C)C)Cc1c[nH]c2ccccc12)C(C)C)Cc1c[nH]c2ccccc12)C(C)C [OL-5] | 12.5 µg/mL (≈ 8.49 µM) | 6.25 µg/mL (≈ 4.25 µM) | 12.5 µg/mL (≈ 8.49 µM) | 6.25 µg/mL (≈ 4.25 µM) | 8.5 μΜ | 4.25 μΜ | 8.5 μΜ | 4.25 μΜ | 6.25 µg/mL (≈ 4.25 µM) | – |
| CC(C)[C@H](N)CNC(=O)N[C@H](CNC(=O)N[C@H](CNC(=O)N[C@H](CNC(=O)N[C@@H](CCCNC(=N)N)CNC(=O)N[C@H](CNC(=O)N[C@@H](CCCNC(=N)N)CNC(=O)N[C@H](CCC(N)=O)C(C)C)Cc1c[nH]c2ccccc12)C(C)C)Cc1c[nH]c2ccccc12)Cc1c[nH]cn1 [OL-1] | 12.5 * μg/mL | 50 µg/mL (≈ 36.6 µM) | 12.5 µg/mL (≈ 9.14 µM) | 12.5 µg/mL (≈ 9.14 µM) | 9.14 μΜ | 36.56 μΜ | 9.14 μΜ | 9.14 μΜ | 12.5 µg/mL (≈ 9.14 µM) | – |
| CC(=O)N[C@@H](CCCCN)C(=O)N[C@@H](Cc1c[nH]cn1)C(=O)N[C@@H](CCCCN)C(=O)N[C@@H](Cc1c[nH]cn1)C(=O)N[C@@H](CCCCN)C(=O)N[C@@H](C)CNC(=O)N[C@H](CNC(=O)N[C@@H](C)CNC(=O)N[C@H](CNC(N)=O)Cc1c[nH]c2ccccc12)Cc1c[nH]c2ccccc12 [OL-6] | – | – | – | – | – | – | – | – | – | MIC, S. aureus ATCC 25923 ([2]; ATCC 25923, 24 h, pH 7.4): ≥ 100 µg/mL; MIC, E. coli ATCC 25922 ([3]; ATCC 25922, 24 h, pH 7.4): ≥ 100 µg/mL |
